Values quoted from earlier work as cited in US20190269627A1, “MEMANTINE COMBINATIONS AND USE” (Chase Pharmaceuticals Corporation, priority 2016, published 2019).

Test system: mice
Details: 2 mg/kg

## CC12CC3CC(C)(C1)CC(N)(C3)C2 [memantine, 3,5-dimethyladamantan-1-amine]
  effect on scopolamine-induced learning deficits in the water maze: reverses scopolamine-induced learning deficits
